Assay results: publication PMC6271423, “Synthesis and Biological Evaluation of New Pyridone-Annelated Isoindigos as Anti-Proliferative Agents” (Molecules, 2014)

Experiments:
K562 cells = assay: MTT cell viability (antiproliferative) assay in K562 cells; format: cell-based, human; details: for cytotoxicity / antiproliferative activity to K562 cells (in words): 0.0 to 30.0 µM, 24 h; for IC50: Homo sapiens
Method: The antiproliferative activities of the synthesized molecules were initially evaluated in human chronic […] leukemia cells K562. The effect of the six derivatives on the viability of K562 was assessed by an MTT assay as described in the methods. In all MTT tests performed, the known antiproliferative agent etoposide was used as a positive control to validate the accuracy of the assay.
Figure 2 The isoindigo compounds 3b and 3d inhibit the growth of K562 cells in a dose- and time-dependent manner. (A) K562 cells were treated with varying concentrations of compounds 3a to 3f (0.0 to 30.0 µM) for 24 h and the antiproliferative activity was analyzed by MTT assay as described in the methods. (B) K562 cells were incubated with 12.0 µM of either compound 3b or 3d for different periods of time (0 to 72 h) and cell viability was assessed by the MTT assay. The controls (in the presence or absence of the solvent vehicle DMSO) represent cells incubated under similar conditions in the absence of the test compound. The percentage of cell viability in each sample was expressed relative to untreated control, which was considered as a 100%. K562 cells were also treated with 4.0, 8.0 and 12.0 µM etoposide under similar conditions as positive controls. The results shown represent the mean ± SD of three independent trials.
Figure 3 The IC50 values of compounds 3b and 3d determined in K562 cells at different time points. K562 cells were treated with varying concentrations of compounds 3b or 3d (0.0 to 40.0 µM) for different periods of time (24, 48 and 72 h) and their antiproliferative activity was analyzed by MTT viability assay. The sigmoidal curves shown were obtained by plotting the percentages of viability (mean ± SD of three independent experiments, three replicates for each concentration in every experiment were used) versus logarithmic molar concentrations of the test compounds at the three different time points, and the IC50 value was determined using a non-linear regression analysis of GraphPad Prism 6 software.
The human chronic myelogenous leukemia K562 (ATCC® CCL-243^TM) and human acute monocytic leukemia THP-1 (ATCC® TIB-202^TM) suspension cells were maintained in RPMI-1640, while adherent HepG2 (human hepatocellular carcinoma, ATCC® HB-8065^TM), MCF7 (human breast adenocarcinoma, ATCC® HTB-22^TM) were cultured in DMEM medium. Adherent Caco-2 (human colorectal adenocarcinoma, ATCC® HTB-37^TM), HEK-293 (human embryonic epithelial cells, ATCC® CRL-1573^TM) and L-929 (mouse subcutaneous connective tissue fibroblast, ATCC® CCL-1^TM) cells were cultured in MEM medium. The media were supplemented with 10% (v/v) heat inactivated FBS, penicillin G (100 U/mL) and streptomycin ([…]), and cells were incubated at 37 °C in a 5% CO2 humidified incubator. The media were changed every 2–3 days and subcultured when the cell population density reached to 70%–80% confluence. Cells were seeded at an appropriate density according to each experimental design.
The antiproliferative activity of the synthesized compounds was assessed using the MTT cell viability assay. Briefly, 2 × 10^4 of the non-adherent K562 or THP-1 cells, in a 100 μL of RPMI-1640 medium, or […] of adherent HepG2, MCF-7, Caco-2, HEK-293 or L-929, in a same volume of the proper media, were seeded in each well of a 96 well-plate. After 24 h, the media was removed by aspiration and replaced by fresh media containing the test compound at varying concentrations (0.0 to 40.0 µM, for cancerous cells) or (0.0 to 80.0 µM, for noncancerous cells), and incubated for the desired time in a 5% CO2-cell culture incubator. Alternatively, cultured K562 cells were incubated with 12.0 µM of the test compound for different time-points (0, 2, 4, 8, 12, 24, 48 and 72 h) before analysis. […]

HEK-293 cells = assay: MTT cell viability assay in noncancerous HEK-293 cells; format: cell-based; details: Homo sapiens, HEK293, 48 h incubation
Description: (§1) In addition to the effect on K562 cells, we have also evaluated the potential antiproliferative activities of compounds 3b and 3d on different hematological and solid tumor cell lines. […] To further characterize the cytotoxicity of compounds 3b and 3d, we evaluated their effects on inducing apoptosis of the cultured K562 cells (Figure 5).
(§2) Figure 4 Compounds 3b and 3d inhibit the growth of various hematological and solid tumor cell lines but not noncancerous cells at low IC50 values. […]
(§3) The antiproliferative activity of the synthesized compounds was assessed using the MTT cell viability assay. […] Absorbance was measured within 60 min at 595 nm using an E Max Precision Microplate reader (Molecular Devices, Sunnyvale, CA, USA). Cell viability at a given concentration was determined from the following expression: Percentage Viability = (Atest compound − Ablank/Acontrol − Ablank) × 100 (1) where Atest compound = absorbance of wells with cells exposed to test compound in media; Acontrol = absorbance of wells with cells in media and Ablank = absorbance of wells with DMSO only, without cells. […]

HepG2 cells = assay: MTT cell viability (antiproliferative) assay in HepG2 cells; format: cell-based; details: Homo sapiens, 48 h incubation
Description: as §1, §2, §3

L-929 cells = assay: MTT cell viability assay in noncancerous L-929 fibroblasts; format: cell-based; details: Mus musculus, L929, 48 h incubation
Description: as §1, §2, §3

Caco-2 cells = assay: MTT cell viability (antiproliferative) assay in Caco-2 cells; format: cell-based; details: Homo sapiens, 48 h incubation
Description: as §1, §2, §3

MCF-7 cells = assay: MTT cell viability (antiproliferative) assay in MCF-7 cells; format: cell-based; details: Homo sapiens, MCF7, 48 h incubation
Description: as §1, §2, §3

THP-1 cells = assay: MTT cell viability (antiproliferative) assay in THP-1 cells; format: cell-based; details: Homo sapiens, 48 h incubation
Description: as §1, §2, §3

[1] = design: method as in PMID 16330129; details: cited from earlier work

Question: Which results are given for `CCn1cc(C(=O)O)c(=O)c2c3c(ccc21)NC(=O)/C3=C1/C(=O)Nc2ccccc21` [3a, (E)-6-Ethyl-2,9-dioxo-1-(2'-oxoindolin-3'-ylidene)-2,3,6,9-tetrahydro-1H-pyrrolo[3,2-f]quinoline-8-carboxylic acid]?
Answer: cytotoxicity / antiproliferative activity to K562 cells (in words) (K562 cells): significantly inhibited their antiproliferative activities; melting point: > 300 °C

Question: With `CCn1cc(C(=O)O)c(=O)c2c3c(ccc21)NC(=O)/C3=C1/C(=O)Nc2ccc(Cl)cc21` [3b, (E)-1-(5'-Chloro-2'-oxoindolin-3'-ylidene)-6-ethyl-2,3,6,9-tetrahydro-2,9-dioxo-1H-pyrrolo[3,2-f]quinoline-8-carboxylic acid] as the compound, how does the IC50 (HEK-293 cells) read?
Answer: 30.7 ± 2.52 µM

Question: What about the IC50 (HepG2 cells) of the same compound?
Answer: 8.97 ± 0.84 µM

Question: What about the IC50 (L-929 cells) of the same compound?
Answer: 40.4 ± 3.15 µM

Question: And the “cytotoxicity / antiproliferative activity to K562 cells (in words)” value (K562 cells)?
Answer: significant dose-dependent cytotoxicity

Question: And the IC50 (K562 cells; K562, 24 h incubation)?
Answer: 15.1 ± 1.27 µM

Question: What about the IC50 (K562 cells; K562, 48 h incubation) of the same compound?
Answer: 6.6 ± 0.58 µM

Question: And the IC50 (K562 cells; K562, 72 h incubation)?
Answer: 4.02 ± 0.52 µM

Question: And the IC50 (Caco-2 cells)?
Answer: 14.6 ± 1.32 µM

Question: And the IC50 (MCF-7 cells)?
Answer: 11.9 ± 0.67 µM

Question: And the IC50 (THP-1 cells)?
Answer: 8.21 ± 0.62 µM

Question: With `CCn1cc(C(=O)O)c(=O)c2c3c(ccc21)NC(=O)/C3=C1/C(=O)Nc2cc(Cl)ccc21` [3c, (E)-1-(6'-Chloro-2'-oxoindolin-3'-ylidene)-6-ethyl-2,3,6,9-tetrahydro-2,9-dioxo-1H-pyrrolo[3,2-f]quinoline-8-carboxylic acid] as the compound, how does the “cytotoxicity / antiproliferative activity to K562 cells (in words)” value (K562 cells) read?
Answer: significantly abolished the cytotoxicity

Question: And the melting point?
Answer: > 300 °C

Question: With `CCn1cc(C(=O)O)c(=O)c2c3c(ccc21)NC(=O)/C3=C1/C(=O)Nc2ccc(Br)cc21` [3d, (E)-1-(5'-Bromo-2'-oxoindolin-3'-ylidene)-6-ethyl-2,3,6,9-tetrahydro-2,9-dioxo-1H-pyrrolo[3,2-f]quinoline-8-carboxylic acid] as the compound, how does the IC50 (HEK-293 cells) read?
Answer: 52.5 ± 4.7 µM

Question: And the IC50 (HepG2 cells)?
Answer: 13.9 ± 2.01 µM

Question: What about the IC50 (L-929 cells) of the same compound?
Answer: 71.9 ± 5.22 µM

Question: What about the “cytotoxicity / antiproliferative activity to K562 cells (in words)” value (K562 cells) of the same compound?
Answer: significant dose-dependent cytotoxicity

Question: And the IC50 (K562 cells; K562, 24 h incubation)?
Answer: 19.1 ± 1.8 µM

Question: And the IC50 (K562 cells; K562, 48 h incubation)?
Answer: 8.66 ± 0.81 µM

Question: And the IC50 (K562 cells; K562, 72 h incubation)?
Answer: 6.92 ± 0.84 µM

Question: And the IC50 (Caco-2 cells)?
Answer: 19 ± 1.37 µM

Question: And the IC50 (MCF-7 cells)?
Answer: 15.7 ± 1.94 µM

Question: And the IC50 (THP-1 cells)?
Answer: 9.1 ± 1 µM

Question: For `CCn1cc(C(=O)O)c(=O)c2c3c(ccc21)NC(=O)/C3=C1/C(=O)Nc2cc(Br)ccc21` [3e, (E)-1-(6'-Bromo-2'-oxoindolin-3'-ylidene)-6-ethyl-2,3,6,9-tetrahydro-2,9-dioxo-1H-pyrrolo[3,2-f]quinoline-8-carboxylic acid], which “cytotoxicity / antiproliferative activity to K562 cells (in words)” value (K562 cells) is on record?
Answer: significantly abolished the cytotoxicity

Question: What about the melting point of the same compound?
Answer: > 300 °C

Question: Which results are given for `CCn1cc(C(=O)O)c(=O)c2c3c(ccc21)NC(=O)/C3=C1/C(=O)Nc2ccc([N+](=O)[O-])cc21` [3f, (E)-6-Ethyl-1-(5'-nitro-2'-oxoindolin-3'-ylidene)-2,9-dioxo-2,3,6,9-tetrahydro-1H-pyrrolo[3,2-f]quinoline-8-carboxylic acid]?
Answer: cytotoxicity / antiproliferative activity to K562 cells (in words) (K562 cells): significantly inhibited their antiproliferative activities; melting point: > 300 °C

Question: Which “solubility in water (in words)” value [1] does the source give for `CC(=O)OC1COC(N2C(=O)C(=C3C(=O)Nc4ccccc43)c3ccccc32)C(OC(C)=O)C1OC(C)=O` [Natura^TM, 1-(β-D-triacetylxylopyranosyl) isoindigo] here?
Answer: almost completely insoluble in water
